Experiments:
Assay in all cases: KINOMEscan assay (Eurofins DiscoverX)
Type in all cases: binding
kinome (kinase panel) [1] = biological target: T1, kinome (kinase panel) (Homo sapiens, UniProt P53667); conditions: LIMK1; 1000 nM; read-out: Percent Control
T1 construct: purchased Eurofins DiscoverX

kinome (kinase panel) [2] = biological target: T2, kinome (kinase panel) (Homo sapiens, UniProt Q9NRM7); conditions: LATS2; 1000 nM; read-out: Percent Control
T2 construct: purchased Eurofins DiscoverX

kinome (kinase panel) [3] = biological target: T3, kinome (kinase panel) (Homo sapiens, UniProt P51813); conditions: BMX; 1000 nM; read-out: Percent Control
T3 construct: purchased Eurofins DiscoverX

kinome (kinase panel) [4] = biological target: T4, kinome (kinase panel) (Homo sapiens, UniProt P36888, D835V); conditions: […]; 1000 nM; read-out: Percent Control
T4 construct: purchased Eurofins DiscoverX

kinome (kinase panel) [5] = biological target: T5, kinome (kinase panel) (Homo sapiens, UniProt O94806); conditions: PRKD3; 1000 nM; read-out: Percent Control
T5 construct: purchased Eurofins DiscoverX

kinome (kinase panel) [6] = biological target: T6, kinome (kinase panel) (Homo sapiens, UniProt P04049); conditions: RAF1; 1000 nM; read-out: Percent Control
T6 construct: purchased Eurofins DiscoverX

kinome (kinase panel) [7] = biological target: T7, kinome (kinase panel) (Homo sapiens, UniProt Q13555); conditions: CAMK2G; 1000 nM; read-out: Percent Control
T7 construct: purchased Eurofins DiscoverX

kinome (kinase panel) [8] = biological target: T8, kinome (kinase panel) (Homo sapiens, UniProt Q56UN5); conditions: YSK4 (MAP3K19); 1000 nM; read-out: Percent Control
T8 construct: purchased Eurofins DiscoverX

kinome (kinase panel) [9] = biological target: T9, kinome (kinase panel) (Homo sapiens, UniProt Q9UBF8); conditions: PIK4CB (Entrez PI4KB); 1000 nM; read-out: Percent Control
T9 construct: purchased Eurofins DiscoverX
T9 sequence (Q9UBF8 whole entry): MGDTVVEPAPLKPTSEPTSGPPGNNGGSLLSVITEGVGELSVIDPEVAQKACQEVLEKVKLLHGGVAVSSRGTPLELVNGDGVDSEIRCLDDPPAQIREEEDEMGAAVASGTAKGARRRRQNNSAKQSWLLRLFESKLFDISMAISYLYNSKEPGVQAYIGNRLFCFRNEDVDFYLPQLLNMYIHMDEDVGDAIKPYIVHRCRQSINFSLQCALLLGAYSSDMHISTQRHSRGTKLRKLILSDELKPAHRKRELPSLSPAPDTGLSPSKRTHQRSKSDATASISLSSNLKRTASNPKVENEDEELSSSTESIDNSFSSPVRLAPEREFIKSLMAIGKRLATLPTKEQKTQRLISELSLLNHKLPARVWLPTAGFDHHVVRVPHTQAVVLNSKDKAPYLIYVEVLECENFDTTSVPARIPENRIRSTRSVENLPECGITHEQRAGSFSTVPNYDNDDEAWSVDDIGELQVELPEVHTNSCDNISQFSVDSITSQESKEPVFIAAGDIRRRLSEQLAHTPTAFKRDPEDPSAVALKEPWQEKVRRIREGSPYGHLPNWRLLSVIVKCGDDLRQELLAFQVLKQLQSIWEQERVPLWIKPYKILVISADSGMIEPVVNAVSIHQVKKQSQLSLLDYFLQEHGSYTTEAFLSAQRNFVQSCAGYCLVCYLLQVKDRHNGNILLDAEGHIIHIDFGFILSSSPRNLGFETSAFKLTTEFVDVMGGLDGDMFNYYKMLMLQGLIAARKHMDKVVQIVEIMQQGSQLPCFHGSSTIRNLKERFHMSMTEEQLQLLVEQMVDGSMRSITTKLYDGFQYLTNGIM

kinome (kinase panel) [10] = biological target: T10, kinome (kinase panel) (Homo sapiens, UniProt Q99759); conditions: MAP3K3; 1000 nM; read-out: Percent Control
T10 construct: purchased Eurofins DiscoverX
T10 sequence (Q99759 whole entry): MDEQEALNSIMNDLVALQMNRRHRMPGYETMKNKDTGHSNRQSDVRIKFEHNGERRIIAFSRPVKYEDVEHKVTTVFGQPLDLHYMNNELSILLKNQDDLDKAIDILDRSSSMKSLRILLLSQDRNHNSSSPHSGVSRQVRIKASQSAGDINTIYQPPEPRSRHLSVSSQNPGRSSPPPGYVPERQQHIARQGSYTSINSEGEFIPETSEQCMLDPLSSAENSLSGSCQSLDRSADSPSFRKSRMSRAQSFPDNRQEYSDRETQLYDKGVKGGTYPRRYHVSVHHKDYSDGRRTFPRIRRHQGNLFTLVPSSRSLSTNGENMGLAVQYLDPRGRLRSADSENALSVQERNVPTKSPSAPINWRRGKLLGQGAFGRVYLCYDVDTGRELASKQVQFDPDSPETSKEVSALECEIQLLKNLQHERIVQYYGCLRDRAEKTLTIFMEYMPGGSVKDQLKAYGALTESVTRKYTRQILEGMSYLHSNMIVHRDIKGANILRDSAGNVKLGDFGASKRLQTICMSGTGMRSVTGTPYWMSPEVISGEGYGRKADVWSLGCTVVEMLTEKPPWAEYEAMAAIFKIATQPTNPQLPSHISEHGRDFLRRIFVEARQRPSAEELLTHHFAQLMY

kinome (kinase panel) [11] = biological target: T11, kinome (kinase panel) (Homo sapiens, UniProt P10721, D816H); conditions: […]; 1000 nM; read-out: Percent Control
T11 construct: purchased Eurofins DiscoverX
T11 sequence (P10721 26-976 D816H): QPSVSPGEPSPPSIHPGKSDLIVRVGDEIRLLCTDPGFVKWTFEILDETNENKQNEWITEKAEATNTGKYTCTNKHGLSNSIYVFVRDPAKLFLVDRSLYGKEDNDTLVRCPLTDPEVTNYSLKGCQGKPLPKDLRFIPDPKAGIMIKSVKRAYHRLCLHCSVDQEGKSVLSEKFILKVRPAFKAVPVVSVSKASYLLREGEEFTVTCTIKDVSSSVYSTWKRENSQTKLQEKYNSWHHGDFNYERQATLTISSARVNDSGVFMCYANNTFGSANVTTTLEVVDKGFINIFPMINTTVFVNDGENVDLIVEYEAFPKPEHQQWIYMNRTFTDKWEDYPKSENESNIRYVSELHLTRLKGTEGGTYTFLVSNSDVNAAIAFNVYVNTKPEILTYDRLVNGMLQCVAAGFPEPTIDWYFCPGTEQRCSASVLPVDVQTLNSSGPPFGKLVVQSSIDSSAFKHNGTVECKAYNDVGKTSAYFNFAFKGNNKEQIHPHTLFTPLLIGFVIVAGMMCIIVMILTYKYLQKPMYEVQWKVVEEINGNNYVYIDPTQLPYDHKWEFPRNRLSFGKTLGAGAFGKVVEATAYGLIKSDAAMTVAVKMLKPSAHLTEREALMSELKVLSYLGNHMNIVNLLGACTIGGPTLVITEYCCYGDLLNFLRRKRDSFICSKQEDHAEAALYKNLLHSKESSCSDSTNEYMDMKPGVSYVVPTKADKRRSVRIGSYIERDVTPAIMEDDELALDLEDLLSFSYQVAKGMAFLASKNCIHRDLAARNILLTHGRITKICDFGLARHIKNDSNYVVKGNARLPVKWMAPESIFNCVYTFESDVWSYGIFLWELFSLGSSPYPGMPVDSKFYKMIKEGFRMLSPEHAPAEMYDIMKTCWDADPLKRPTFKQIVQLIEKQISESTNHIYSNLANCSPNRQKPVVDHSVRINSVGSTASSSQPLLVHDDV

kinome (kinase panel) [12] = biological target: T12, kinome (kinase panel) (Homo sapiens, UniProt Q12866); conditions: MERTK; 1000 nM; read-out: Percent Control
T12 construct: purchased Eurofins DiscoverX

kinome (kinase panel) [13] = biological target: T13, kinome (kinase panel) (Homo sapiens, UniProt P17948); conditions: FLT1; 1000 nM; read-out: Percent Control
T13 construct: purchased Eurofins DiscoverX

kinome (kinase panel) [14] = biological target: T14, kinome (kinase panel) (Homo sapiens, UniProt Q96PY6); conditions: NEK1; 1000 nM; read-out: Percent Control
T14 construct: purchased Eurofins DiscoverX

kinome (kinase panel) [15] = biological target: T15, kinome (kinase panel) (Homo sapiens, UniProt P36888, D835H); conditions: […]; 1000 nM; read-out: Percent Control
T15 construct: purchased Eurofins DiscoverX

kinome (kinase panel) [16] = biological target: T16, kinome (kinase panel) (Homo sapiens, UniProt P30291); conditions: WEE1; 1000 nM; read-out: Percent Control
T16 construct: purchased Eurofins DiscoverX

kinome (kinase panel) [17] = biological target: T17, kinome (kinase panel) (Homo sapiens, UniProt O43318); conditions: TAK1 (MAP3K7); 1000 nM; read-out: Percent Control
T17 construct: purchased Eurofins DiscoverX

kinome (kinase panel) [18] = biological target: T18, kinome (kinase panel) (Homo sapiens, UniProt Q02763); conditions: TIE2 (TEK); 1000 nM; read-out: Percent Control
T18 construct: purchased Eurofins DiscoverX

kinome (kinase panel) [19] = biological target: T19, kinome (kinase panel) (Homo sapiens, UniProt P36894); conditions: BMPR1A; 1000 nM; read-out: Percent Control
T19 construct: purchased Eurofins DiscoverX
T19 sequence (P36894 24-532): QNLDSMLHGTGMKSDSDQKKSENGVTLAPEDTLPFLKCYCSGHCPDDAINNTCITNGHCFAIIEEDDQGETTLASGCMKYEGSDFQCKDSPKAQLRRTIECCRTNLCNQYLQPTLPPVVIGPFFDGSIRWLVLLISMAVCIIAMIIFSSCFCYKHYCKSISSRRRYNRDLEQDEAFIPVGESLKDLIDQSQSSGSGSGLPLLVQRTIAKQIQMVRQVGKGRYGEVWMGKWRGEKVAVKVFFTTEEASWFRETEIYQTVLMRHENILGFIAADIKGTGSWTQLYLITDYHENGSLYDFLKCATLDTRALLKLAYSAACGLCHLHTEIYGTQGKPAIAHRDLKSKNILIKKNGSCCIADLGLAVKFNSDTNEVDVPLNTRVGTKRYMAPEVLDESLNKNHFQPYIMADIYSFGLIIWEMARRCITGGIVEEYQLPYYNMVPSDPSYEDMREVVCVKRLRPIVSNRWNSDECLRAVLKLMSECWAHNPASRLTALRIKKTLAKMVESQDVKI

kinome (kinase panel) [20] = biological target: T20, kinome (kinase panel) (Homo sapiens, UniProt P49674); conditions: CSNK1E; 1000 nM; read-out: Percent Control
T20 construct: purchased Eurofins DiscoverX

kinome (kinase panel) [21] = biological target: T21, kinome (kinase panel) (Homo sapiens, UniProt Q13188); conditions: MST2 (Entrez STK3); 1000 nM; read-out: Percent Control
T21 construct: purchased Eurofins DiscoverX
T21 sequence (Q13188 whole entry): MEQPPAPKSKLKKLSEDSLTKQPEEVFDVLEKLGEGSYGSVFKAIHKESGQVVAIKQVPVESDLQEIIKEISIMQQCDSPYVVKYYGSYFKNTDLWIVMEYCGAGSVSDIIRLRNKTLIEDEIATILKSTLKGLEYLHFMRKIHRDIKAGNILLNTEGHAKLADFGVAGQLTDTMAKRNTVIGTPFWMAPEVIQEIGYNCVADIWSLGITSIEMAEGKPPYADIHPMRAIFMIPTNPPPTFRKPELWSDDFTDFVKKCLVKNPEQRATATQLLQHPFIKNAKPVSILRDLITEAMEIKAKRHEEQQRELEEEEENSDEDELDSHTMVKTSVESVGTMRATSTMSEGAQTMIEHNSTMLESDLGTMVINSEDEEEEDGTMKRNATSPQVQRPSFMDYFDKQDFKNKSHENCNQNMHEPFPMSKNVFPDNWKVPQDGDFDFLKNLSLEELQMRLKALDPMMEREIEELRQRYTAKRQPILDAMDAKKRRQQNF

kinome (kinase panel) [22] = biological target: T22, kinome (kinase panel) (Homo sapiens, UniProt P45985); conditions: MEK4 (Entrez MAP2K4); 1000 nM; read-out: Percent Control
T22 construct: purchased Eurofins DiscoverX
T22 sequence (P45985 whole entry): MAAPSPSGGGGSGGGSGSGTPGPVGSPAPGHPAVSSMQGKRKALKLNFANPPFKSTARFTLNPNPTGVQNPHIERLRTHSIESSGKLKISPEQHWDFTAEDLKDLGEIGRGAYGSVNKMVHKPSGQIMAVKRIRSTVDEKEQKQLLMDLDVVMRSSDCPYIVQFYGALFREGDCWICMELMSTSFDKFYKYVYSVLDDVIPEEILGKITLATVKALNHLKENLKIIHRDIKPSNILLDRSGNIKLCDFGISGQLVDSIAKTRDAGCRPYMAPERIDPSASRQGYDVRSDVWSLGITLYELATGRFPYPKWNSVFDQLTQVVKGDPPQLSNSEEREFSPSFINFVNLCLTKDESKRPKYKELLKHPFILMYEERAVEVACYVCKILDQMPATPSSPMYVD

kinome (kinase panel) [23] = biological target: T23, kinome (kinase panel) (Homo sapiens, UniProt Q8TF76); conditions: HASPIN (Entrez GSG2); 1000 nM; read-out: Percent Control
T23 construct: purchased Eurofins DiscoverX

kinome (kinase panel) [24] = biological target: T24, kinome (kinase panel) (Homo sapiens, UniProt Q13177); conditions: PAK2; 1000 nM; read-out: Percent Control
T24 construct: purchased Eurofins DiscoverX
T24 sequence (Q13177 whole entry): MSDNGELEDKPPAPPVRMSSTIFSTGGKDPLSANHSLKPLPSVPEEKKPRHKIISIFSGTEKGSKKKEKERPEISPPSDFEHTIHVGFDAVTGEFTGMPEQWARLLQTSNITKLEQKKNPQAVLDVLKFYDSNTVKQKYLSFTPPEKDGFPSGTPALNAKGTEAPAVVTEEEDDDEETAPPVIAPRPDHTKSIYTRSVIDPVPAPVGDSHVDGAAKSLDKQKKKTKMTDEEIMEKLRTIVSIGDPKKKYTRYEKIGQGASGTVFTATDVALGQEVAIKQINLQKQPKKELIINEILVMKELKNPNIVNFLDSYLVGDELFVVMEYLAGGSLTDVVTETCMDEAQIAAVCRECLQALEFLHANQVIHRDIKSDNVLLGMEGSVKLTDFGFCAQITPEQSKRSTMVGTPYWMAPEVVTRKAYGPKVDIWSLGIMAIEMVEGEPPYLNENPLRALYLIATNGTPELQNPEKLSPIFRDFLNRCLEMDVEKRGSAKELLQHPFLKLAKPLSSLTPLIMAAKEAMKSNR

kinome (kinase panel) [25] = biological target: T25, kinome (kinase panel) (Homo sapiens, UniProt P21127); conditions: CDC2L1 (Entrez CDK11B); 1000 nM; read-out: Percent Control
T25 construct: purchased Eurofins DiscoverX

kinome (kinase panel) [26] = biological target: T26, kinome (kinase panel) (Homo sapiens, UniProt Q13237); conditions: PRKG2; 1000 nM; read-out: Percent Control
T26 construct: purchased Eurofins DiscoverX

kinome (kinase panel) [27] = biological target: T27, kinome (kinase panel) (Homo sapiens, UniProt P10721, V559D); conditions: […]; 1000 nM; read-out: Percent Control
T27 construct: purchased Eurofins DiscoverX
T27 sequence (P10721 26-976 V559D): as the sequence (P10721 26-976 D816H) above, with V534D, H791D counted along it

kinome (kinase panel) [28] = biological target: T28, kinome (kinase panel) (Homo sapiens, UniProt O75460); conditions: ERN1; 1000 nM; read-out: Percent Control
T28 construct: purchased Eurofins DiscoverX

kinome (kinase panel) [29] = biological target: T29, kinome (kinase panel) (Homo sapiens, UniProt Q08881); conditions: ITK; 1000 nM; read-out: Percent Control
T29 construct: purchased Eurofins DiscoverX
T29 sequence (Q08881 whole entry): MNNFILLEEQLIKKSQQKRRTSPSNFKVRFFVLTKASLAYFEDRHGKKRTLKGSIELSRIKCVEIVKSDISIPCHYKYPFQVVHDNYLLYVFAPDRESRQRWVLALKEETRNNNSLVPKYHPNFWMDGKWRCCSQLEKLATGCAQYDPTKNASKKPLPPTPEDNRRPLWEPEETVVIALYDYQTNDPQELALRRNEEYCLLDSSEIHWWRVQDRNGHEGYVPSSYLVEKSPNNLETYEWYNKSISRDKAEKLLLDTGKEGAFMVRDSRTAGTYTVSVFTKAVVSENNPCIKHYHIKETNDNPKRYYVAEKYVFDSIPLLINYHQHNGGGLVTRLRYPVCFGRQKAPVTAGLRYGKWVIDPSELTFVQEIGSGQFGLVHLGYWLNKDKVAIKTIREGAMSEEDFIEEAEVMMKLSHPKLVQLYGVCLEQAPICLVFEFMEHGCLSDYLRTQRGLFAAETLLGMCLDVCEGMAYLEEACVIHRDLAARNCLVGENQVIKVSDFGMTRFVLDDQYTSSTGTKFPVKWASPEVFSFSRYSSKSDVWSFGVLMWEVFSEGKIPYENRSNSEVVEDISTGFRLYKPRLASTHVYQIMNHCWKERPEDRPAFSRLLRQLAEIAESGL

kinome (kinase panel) [30] = biological target: T30, kinome (kinase panel) (Homo sapiens, UniProt Q8IVH8); conditions: MAP4K3; 1000 nM; read-out: Percent Control
T30 construct: purchased Eurofins DiscoverX

kinome (kinase panel) [31] = biological target: T31, kinome (kinase panel) (Homo sapiens, UniProt Q05655); conditions: PRKCD; 1000 nM; read-out: Percent Control
T31 construct: purchased Eurofins DiscoverX

kinome (kinase panel) [32] = biological target: T32, kinome (kinase panel) (Homo sapiens, UniProt P42336); conditions: PIK3CA; 1000 nM; read-out: Percent Control
T32 construct: purchased Eurofins DiscoverX

kinome (kinase panel) [33] = biological target: T33, kinome (kinase panel) (Homo sapiens, UniProt Q16566); conditions: CAMK4; 1000 nM; read-out: Percent Control
T33 construct: purchased Eurofins DiscoverX

Work on CN(C)C(=O)c1cc2cnc(Nc3ccc(-c4csc5c(=O)cc(N6CCOCC6)oc45)cc3)nc2n1C1CCCC1 [SRX3177] yielded a remaining binding at 1 µM (kinome (kinase panel) [1]) of 85%, a remaining binding at 1 µM (kinome (kinase panel) [2]) of 42% and a remaining binding at 1 µM (kinome (kinase panel) [3]) of 77%. The remaining binding at 1 µM (kinome (kinase panel) [4]) was 2.1%, the remaining binding at 1 µM (kinome (kinase panel) [5]) was 92% and the remaining binding at 1 µM (kinome (kinase panel) [6]) was 100%. It also gave a remaining binding at 1 µM (kinome (kinase panel) [7]) of 65%, a remaining binding at 1 µM (kinome (kinase panel) [8]) of 65% and a remaining binding at 1 µM (kinome (kinase panel) [9]) of 19%. For the same molecule, the remaining binding at 1 µM (kinome (kinase panel) [10]) was 58%, the remaining binding at 1 µM (kinome (kinase panel) [11]) was 28% and the remaining binding at 1 µM (kinome (kinase panel) [12]) was 86%. For the same molecule, the remaining binding at 1 µM (kinome (kinase panel) [13]) was 91%, the remaining binding at 1 µM (kinome (kinase panel) [14]) was 100% and the remaining binding at 1 µM (kinome (kinase panel) [15]) was 8.9%. For the same molecule, the remaining binding at 1 µM (kinome (kinase panel) [16]) was 99%, the remaining binding at 1 µM (kinome (kinase panel) [17]) was 94% and the remaining binding at 1 µM (kinome (kinase panel) [18]) was 100%. For the same molecule, the remaining binding at 1 µM (kinome (kinase panel) [19]) was 100%, the remaining binding at 1 µM (kinome (kinase panel) [20]) was 63% and the remaining binding at 1 µM (kinome (kinase panel) [21]) was 61%. For the same molecule, the remaining binding at 1 µM (kinome (kinase panel) [22]) was 79%, the remaining binding at 1 µM (kinome (kinase panel) [23]) was 67% and the remaining binding at 1 µM (kinome (kinase panel) [24]) was 78%. For the same molecule, the remaining binding at 1 µM (kinome (kinase panel) [25]) was 99%, the remaining binding at 1 µM (kinome (kinase panel) [26]) was 87% and the remaining binding at 1 µM (kinome (kinase panel) [27]) was 49%. The remaining binding at 1 µM (kinome (kinase panel) [28]) was 85%, the remaining binding at 1 µM (kinome (kinase panel) [29]) was 90% and the remaining binding at 1 µM (kinome (kinase panel) [30]) was 100%. It also gave a remaining binding at 1 µM (kinome (kinase panel) [31]) of 86%, a remaining binding at 1 µM (kinome (kinase panel) [32]) of 72% and a remaining binding at 1 µM (kinome (kinase panel) [33]) of 100%.

Source: publication PMC7385619, “A triple action CDK4/6-PI3K-BET inhibitor with augmented cancer cell cytotoxicity” (Cell Discovery, 2020)
